Entries after “also recorded” stand apart in the source; their conditions may differ. Ends that are not written are not given here.
What was measured:
C57bl/6 mice [1] = test: 28 days oral dosing in diet-induced obese mice: body weight and food intake; format: in vivo; conditions: bid po up to 28 days
Text: (§1) Group housed, male, C57bl/6 mice received high fat diet and water ad lib to establish diet-induced obesity, and for the duration of the experiment. After acclimating to individual housing for at least 5 days, mice were then acclimated to bid oral gavage with vehicle for 7 days. Once acclimated, mice were culled into equal groups (n>10/group) according to body weight and compound dosing began. Mice received either vehicle or compound (bid, po) for periods up to 28 days, during which body weight and food intake were measured daily. Representative cohorts (based on BW) for each group were removed at 7, 14, 21 or 28 days for glucose tolerance tests and tissue analysis.

mice [2] = test: Plasma HbA1c and lipid profile after 28 day dosing; format: in vivo; conditions: at 28 days; for cholesterol levels / plasma HbA1c levels: versus vehicle
Text: as §1
Mice are sacrificed by CO2 asphyxiation and terminal blood samples were collected via cardiac puncture. For HbA1c, whole blood is analyzed using a DCA2000+ glycated hemoglobin analyzer (Bayer Healthcare, Indianapolis, Ind.). Triglycerides, total cholesterol, and HDL-cholesterol were all measured using a Cholestech LDX lipid profile analyzer (Cholestech, Hayward, Calif.). As shown in FIG. 6 and FIG. 7, both plasma HbA1c and cholesterol levels were improved at 28 days in animals treated with compound 57 and compound 94 versus animals treated with vehicle alone.

C57bl/6 mice [3] = test: Ghrelin-induced food intake in mice dosed ip; format: in vivo; conditions: 1, 3, 10, 30 mpk ip after ghrelin ip; food intake at 1, 2, 4, 6 hours; relative to vehicle
Procedure: Ad libidum low fat chow-fed male C57bl/6 mice were acclimated to individual housing for >5 days prior to the experiment. On the morning of the experiment food was removed from the cages and animals were then dosed ip (n=8/group) with either vehicle or ghrelin followed one minute later by a second ip injection containing either vehicle or one of several doses of compound (1, 3, 10, 30mpk ip). Immediately after the second dosing food was returned to the cages and food intake was measured 1, 2, 4 and 6 hours later.

[4] = Preliminary PK studies (IV/PO), oral bioavailability and brain/plasma ratio; format: in vivo; conditions: mouse, male diet-induced obese C57bl/6 mice; for Kp: brain and plasma, brain AUC vs plasma AUC; for bioavailability: oral bioavailability, plasma AUC PO vs IV
Procedure: Male, diet-induced obese, ad libidum fed, C57bl/6 mice were used for these preliminary PK studies. They were dosed (n=3 mice per data point) either IV or PO. Mice ere sacrificed and the blood/brains collected at the following times: IV samples were taken at 5, 15, 30, 60, 120, 240, 480 minutes after dosing; PO samples were taken at 15, 30, 60, 120, 240, 480 minutes after dosing. Plasma and brain samples were evaluated for the presence of compound. Oral bioavailability (% F) was determined by comparing the plasma AUCIV and AUCPO. The brain/plasma ratio was determined by comparing the brain AUC and plasma AUC values.

GHS-R = GHS-R (Homo sapiens, UniProt Q92847); test: GHS-R antagonist activity (Ki) in a cell based assay
How it was run: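 Transfected COS-7 cells were labelled 24 h with [^3H]-myo-inositol and preincubated 30 min at 37 °C in HEPES buffer pH 7.4 with 10 mM LiCl, optionally with 1 U/ml adenosine deaminase. Compound was applied for 45 min at 37 °C. [^3H]-inositol phosphates were extracted with perchloric acid and isolated by anion-exchange resin.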

mice (DIO) = test: Glucose tolerance test (GTT), insulin sensitivity in DIO mice; format: in vivo
Text: as §1
On the night prior to the GTT, mice (DIO) within each dose group (n=8/group) had their body weight measured and were then fasted overnight for 16 hours prior to the GTT. On the morning of the GTT a 40 µL blood sample was removed from the tail for baseline fasted blood glucose and plasma insulin measurements. Mice then received their normal dose of compound. One hour later mice were dosed with glucose ([…], either IP or PO) and further tail bleeds (40 µL) were taken at 15, 30, 60 and 120 minutes after the glucose dose for blood glucose and plasma insulin measurements. Mice were sacrificed following the final sample time. Baseline fasted blood glucose levels are provided in FIG. 4a for compound 57 and in FIG. 4d for compound 94.

mice [5] = test: Fast refeed assay; format: in vivo
Procedure: Food is removed at 6 pm for an overnight (˜16 hour) fast. Beginning at 10 am on the next morning, mice are administered with either vehicle (e.g., saline+acetic acid, pH=5) or the compound of interest. Mice are then returned to their home cages and pre-weighed food (approximately 90 grams) is immediately returned to the food hoppers in each cage. The weight of the food remaining in the food hoppers is measured at 30 minutes, 1 hour, 2 hours, and 4 hours post compound/vehicle administration. Final body weights are then recorded for the mice.

[6] = FIGS. 4a-4f, 7 to 28 days oral dosing

Chain of GHS-R (Q92847 whole entry, species assumed): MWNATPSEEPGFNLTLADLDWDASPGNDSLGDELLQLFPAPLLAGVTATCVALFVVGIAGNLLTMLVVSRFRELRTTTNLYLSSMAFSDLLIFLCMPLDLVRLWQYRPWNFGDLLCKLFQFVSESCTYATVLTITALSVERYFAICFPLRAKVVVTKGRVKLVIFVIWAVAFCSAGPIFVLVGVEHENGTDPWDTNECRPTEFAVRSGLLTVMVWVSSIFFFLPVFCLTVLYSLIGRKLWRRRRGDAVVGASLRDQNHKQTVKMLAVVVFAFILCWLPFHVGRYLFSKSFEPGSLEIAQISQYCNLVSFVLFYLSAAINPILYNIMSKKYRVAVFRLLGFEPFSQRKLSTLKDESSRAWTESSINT

| Compound | body weight (C57bl/6 mice [1]) | food intake (C57bl/6 mice [1]) | triglyceride levels (mice [2]) | cholesterol levels (mice [2]) | plasma HbA1c levels (mice [2]) | ghrelin-induced food intake (C57bl/6 mice [3]) | Kp [4] | bioavailability [4] [%] | Ki (GHS-R) [nM] | insulin sensitivity (mice (DIO); [6]) | insulin sensitivity (mice (DIO); GTT at 7 days of oral dosing) | insulin sensitivity (mice (DIO); GTT at 28 days of oral dosing) | insulin sensitivity (mice (DIO); GTT at 21 days of oral dosing) | feeding activity (mice [5]) |
| --- | --- | --- | --- | --- | --- | --- | --- | --- | --- | --- | --- | --- | --- | --- |
| CCN(CC)CCCS(=O)(=O)N[C@H](CCc1ccccc1)c1nc(-c2ccc(OC)cc2)n[nH]1 [Compound 94, 3-Diethylamino-propane-1-sulfonic acid {(R)-1-[5-(4-methoxy-phenyl)-2H-[1,2,4]triazol-3-yl]-3-phenyl-propyl}-amide] | decreased body weight; also recorded: decrease in body weight | No apparent effect on food intake | improved triglyceride levels | improved cholesterol levels | improved plasma HbA1c levels | block ghrelin-induced food intake; also recorded: reduced food intake | 0.087 | 63.2 | < 100 | improvement in insulin sensitivity | improved insulin sensitivity | improved insulin sensitivity | – | – |
| CCN(CC)CCCS(=O)(=O)N[C@H](CCc1ccccc1)c1nc(Cc2ccc(Br)cc2)no1 [Compound 57, 3-Diethylamino-propane-1-sulfonic acid {(R)-1-[3-(4-bromo-benzyl)-[1,2,4]oxadiazol-5-yl]-3-phenyl-propyl}-amide] | decreased body weight; also recorded: decrease in body weight | No apparent effect on food intake | – | improved cholesterol levels | improved plasma HbA1c levels | block ghrelin-induced food intake; also recorded: reduced food intake | 0.139 | 10.2 | < 100 | improvement in insulin sensitivity | improved insulin sensitivity | – | improved insulin sensitivity | – |
| substance P (RPKPQQFFGLM-NH2; ends and bridges not checked; UniProt P20366 58-68, looked up) | – | – | – | – | – | – | – | – | – | – | – | – | – | alters feeding activity |
